Measurements from patent publication US20240407991A1, “LOW PENETRATION SUNSCREEN COMPOSITIONS” (Johnson & Johnson Consumer Inc., priority 2023, published 2024).

System: skin
Assay: Skin permeation of UV filters and active agents after topical application
Details: from Compositions 27 to 31, topically applied

skin permeation of cosmetically acceptable active agents: permeated the skin
SMILES: NC(=O)c1cccnc1 [niacinamide]
